Assay results taken from PMC6001238, “Iterative Chemical Engineering of Vancomycin Leads to Novel Vancomycin Analogs With a High in Vitro Therapeutic Index” (Frontiers in Microbiology, 2018).
In brackets after ≈: the same amount, converted by molar mass.

How the values were obtained:
E. faecalis VSE 1 = test: MIC, broth microdilution, vancomycin-sensitive E. faecalis (VSE 1); assay type: cell-based, Enterococcus faecalis; conditions: for MIC: Enterococcus faecalis VSE 1 (vancomycin-sensitive), read-out: MIC; for MIC-fold improvement vs. vancomycin: VSE 1, ratio of MIC of vancomycin and MIC of analogue
Method in brief: (§1)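 MIC values come from broth microdilution run to CLSI susceptibility-testing standards. Ultrapure water and uninoculated broth served as controls. In one series, vancomycin at a final 10 μM was co-dosed with the analogue or comparator antibiotic.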

E. faecalis VRE 6 = test: MIC, broth microdilution, vancomycin-resistant E. faecalis VRE 6 (VanA); assay type: cell-based, Enterococcus faecalis; conditions: for MIC: Enterococcus faecalis VRE 6 (vancomycin-resistant), read-out: MIC; for MIC-fold improvement vs. vancomycin: VRE 6, ratio of MIC of vancomycin and MIC of analogue
Method in brief: as §1

E. faecalis VRE 53 = test: MIC, broth microdilution, vancomycin-resistant E. faecalis VRE 53 (VanA); assay type: cell-based, Enterococcus faecalis; conditions: for MIC: Enterococcus faecalis VRE 53 (vancomycin-resistant), read-out: MIC; for MIC-fold improvement vs. vancomycin: VRE 53, ratio of MIC of vancomycin and MIC of analogue
Method in brief: as §1

E. faecalis VRE 29 = test: MIC, broth microdilution, vancomycin-resistant E. faecalis VRE 29 (VanA); assay type: cell-based, Enterococcus faecalis; conditions: for MIC: Enterococcus faecalis VRE 29 (vancomycin-resistant), read-out: MIC; for MIC-fold improvement vs. vancomycin: VRE 29, ratio of MIC of vancomycin and MIC of analogue
Method in brief: as §1

E. faecalis VRE 37 = test: MIC, broth microdilution, vancomycin-resistant E. faecalis VRE 37 (VanA); assay type: cell-based, Enterococcus faecalis; conditions: Enterococcus faecalis VRE 37 (vancomycin-resistant); read-out: MIC
Method in brief: as §1

[1] = tested on: Murine leukemia (L1210) cells; test: Cytostatic activity, L1210 cell proliferation; assay type: cell-based; conditions: mean ± SD of three experiments; highest concentration tested 250 µM; 2 days; read-out: Toxicity (IC50) L1210
Method in brief: (§2)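 Test compounds, serially diluted, received an equal volume of cell suspension at 300,000–500,000 cells/mL. After 37°C incubation (2 days for L1210, 3 for CEM, 4 for HeLa), cells were enumerated by Coulter counting and 50%-inhibitory concentrations calculated per cell type.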

[2] = tested on: human T-lymphocyte (CEM) cells; test: Cytostatic activity, CEM cell proliferation; assay type: cell-based; conditions: mean ± SD of three experiments; highest concentration tested 250 µM; 3 days; read-out: Toxicity (IC50) CEM
Method in brief: as §2

[3] = tested on: human cervix carcinoma (HeLa) cells; test: Cytostatic activity, HeLa cell proliferation; assay type: cell-based; conditions: mean ± SD of three experiments; highest concentration tested 250 µM; 4 days; read-out: Toxicity (IC50) HeLa
Method in brief: as §2

[4] = tested on: L1210, CEM and HeLa cell lines; test: Cytostatic activity, average or summary over L1210, CEM and HeLa; assay type: cell-based; conditions: average of L1210, CEM and HeLa; read-out: Toxicity (IC50) Average
Method in brief: as §2

[5] = tested on: S. aureus VSSA (ATCC 6538); test: MIC, broth microdilution, vancomycin-sensitive S. aureus (VSSA/MSSA, ATCC 6538); assay type: cell-based, Staphylococcus aureus; conditions: for MIC: Staphylococcus aureus VSSA, read-out: MIC; for MIC-fold improvement vs. vancomycin: VSSA, ratio of MIC of vancomycin and MIC of analogue
Method in brief: as §1

S. aureus VISA/HIP5827 = test: MIC, broth microdilution, vancomycin-intermediate S. aureus VISA HIP5827; assay type: cell-based, Staphylococcus aureus; conditions: for MIC: Staphylococcus aureus VISA/HIP5827, read-out: MIC; for MIC-fold improvement vs. vancomycin: VISA/HIP5827, ratio of MIC of vancomycin and MIC of analogue
Method in brief: as §1

S. aureus VRSA = test: MIC, broth microdilution, vancomycin-resistant S. aureus (VRSA); assay type: cell-based, Staphylococcus aureus; conditions: for MIC: Staphylococcus aureus VRSA, read-out: MIC; for MIC-fold improvement vs. vancomycin: VRSA, ratio of MIC of vancomycin and MIC of analogue
Method in brief: as §1

MRSA KS2 = test: MIC, broth microdilution, MRSA KS2; assay type: cell-based, Staphylococcus aureus; conditions: for MIC-fold improvement vs. vancomycin: MRSA KS2, ratio of MIC of vancomycin and MIC of analogue; for MIC: Staphylococcus aureus MRSA KS2, read-out: MIC
Method in brief: as §1

MRSA KS6 = test: MIC, broth microdilution, MRSA KS6; assay type: cell-based, Staphylococcus aureus; conditions: for MIC-fold improvement vs. vancomycin: MRSA KS6, ratio of MIC of vancomycin and MIC of analogue; for MIC: Staphylococcus aureus MRSA KS6, read-out: MIC
Method in brief: as §1

MRSA KS89 = test: MIC, broth microdilution, MRSA KS89; assay type: cell-based, Staphylococcus aureus; conditions: for MIC-fold improvement vs. vancomycin: MRSA KS8, ratio of MIC of vancomycin and MIC of analogue; for MIC: Staphylococcus aureus MRSA KS8, read-out: MIC
Method in brief: as §1

MRSA KS1 = test: MIC, broth microdilution, MRSA KS1; assay type: cell-based, Staphylococcus aureus; conditions: for MIC-fold improvement vs. vancomycin: MRSA KS1, ratio of MIC of vancomycin and MIC of analogue; for MIC: Staphylococcus aureus MRSA KS1, read-out: MIC
Method in brief: as §1

Compound | MIC (E. faecalis VSE 1) [µM] | MIC-fold improvement vs. vancomycin (E. faecalis VSE 1) | MIC (E. faecalis VRE 6) [µM] | MIC-fold improvement vs. vancomycin (E. faecalis VRE 6) | MIC (E. faecalis VRE 53) [µM] | MIC-fold improvement vs. vancomycin (E. faecalis VRE 53) | MIC (E. faecalis VRE 29) [µM] | MIC-fold improvement vs. vancomycin (E. faecalis VRE 29) | MIC (E. faecalis VRE 37) [µM] | IC50 [1] [µM] | IC50 [2] [µM] | IC50 [3] [µM] | IC50 [4] [µM] | MIC [5] [µM] | MIC-fold improvement vs. vancomycin [5] | MIC (S. aureus VISA/HIP5827) [µM] | MIC-fold improvement vs. vancomycin (S. aureus VISA/HIP5827) | MIC (S. aureus VRSA) [µM] | MIC-fold improvement vs. vancomycin (S. aureus VRSA) | MIC-fold improvement vs. vancomycin (MRSA KS2) | further results
CNC(CC(C)C)C(=O)NC1C(=O)NC(CC(N)=O)C(=O)NC2C(=O)NC3C(=O)NC(C(=O)NC(C(=O)NCCCNC(=O)c4ccc5ccccc5n4)c4cc(O)cc(O)c4-c4cc3ccc4O)C(O)c3ccc(c(Cl)c3)Oc3cc2cc(c3OC2OC(CO)C(O)C(O)C2OC2CC(C)(N)C(O)C(C)O2)Oc2ccc(cc2Cl)C1O (stereo not drawn) [Vanc-27] | 0.39 (≈ 0.648 µg/mL) | 4 | 3.13 (≈ 5.2 µg/mL) | 64 | 25 (≈ 41.5 µg/mL) | 16 | 12.5 (≈ 20.8 µg/mL) | 32 | 12.5 (≈ 20.8 µg/mL) | > 250 | 229 ± 30 | 76 ± 8 | 185 | 0.39 (≈ 0.648 µg/mL) | 2 | 0.39 (≈ 0.648 µg/mL) | 16 | 6.25 (≈ 10.4 µg/mL) | 16 | 2 | MIC (MRSA KS2): 0.39 µM (≈ 0.648 µg/mL); MIC-fold improvement vs. vancomycin (MRSA KS6): 2; MIC (MRSA KS6): 0.39 µM (≈ 0.648 µg/mL); MIC-fold improvement vs. vancomycin (MRSA KS89): 1; MIC (MRSA KS89): 0.78 µM (≈ 1.3 µg/mL); MIC-fold improvement vs. vancomycin (MRSA KS1): 2; MIC (MRSA KS1): 0.39 µM (≈ 0.648 µg/mL)
CN[C@H](CC(C)C)C(=O)N[C@H]1C(=O)N[C@@H](CC(N)=O)C(=O)N[C@H]2C(=O)N[C@H]3C(=O)N[C@H](C(=O)N[C@H](C(=O)NCCCNC(=O)c4ccc5ccccc5c4)c4cc(O)cc(O)c4-c4cc3ccc4O)[C@H](O)c3ccc(c(Cl)c3)Oc3cc2cc(c3O[C@@H]2O[C@H](CO)[C@@H](O)[C@H](O)[C@H]2O[C@H]2C[C@](C)(N)[C@H](O)[C@H](C)O2)Oc2ccc(cc2Cl)[C@H]1O [Vanc-28] | 0.20 (≈ 0.332 µg/mL) | 8 | 3.13 (≈ 5.19 µg/mL) | 64 | 25 (≈ 41.5 µg/mL) | 16 | 6.25 (≈ 10.4 µg/mL) | 64 | 12.5 (≈ 20.7 µg/mL) | > 250 | 229 ± 12 | 68 ± 16 | 182 | 0.39 (≈ 0.647 µg/mL) | 2 | 0.39 (≈ 0.647 µg/mL) | 16 | 3.13 (≈ 5.19 µg/mL) | 32 | 4 | MIC (MRSA KS2): 0.20 µM (≈ 0.332 µg/mL); MIC-fold improvement vs. vancomycin (MRSA KS6): 4; MIC (MRSA KS6): 0.20 µM (≈ 0.332 µg/mL); MIC-fold improvement vs. vancomycin (MRSA KS89): 2; MIC (MRSA KS89): 0.39 µM (≈ 0.647 µg/mL); MIC-fold improvement vs. vancomycin (MRSA KS1): 2; MIC (MRSA KS1): 0.39 µM (≈ 0.647 µg/mL)
